Source: US8778973B2, “Alkene oxindole derivatives” (Hoffmann-La Roche Inc., priority 2009, dated 2014)
pEC50: −log10 of the molar value.

Test system: Recombinant human AMPK proteins (α1β1γ1, α2β1γ1, α1(1-335), α1(1-394) or α2(1-394))
Test: Scintillation Proximity Assay (SPA) of AMPK activation
Format: biochemical
Conditions: activator concentration for 50% of maximal enzyme activity; 50 nM recombinant AMPK, 2 μM ATP, 30° C., 2 hr
Protocol: Recombinant human AMPK α1β1γ1, α2β1γ1 or AMPK α subunit truncations α1(1-335), α1(1-394) and α2(1-394) were constructed, expressed and purified as described previously (Pang, T., Zhang, Z. S., Gu, M., Qiu, B. Y., Yu, L. F., Cao, P. R., Shao, W., Su, M. B., Li, J. Y., Nan, F. J., and Li, J. (2008)). Rat liver AMPK heterotrimer enzyme was obtained from Upstate (Billerica, Mass., U.S.A.).
Scintillation Proximity Assay
Before the Scintillation Proximity Assay (SPA) assay, 200 nM recombinant AMPK proteins (α1β1γ1, α2β1γ1, α1(1-335), α1(1-394) or α2(1-394)) were fully phosphorylated as described previously (Pang et al., 2008). SPA reactions were performed in 96-well plates at a final volume of 501 containing 20 mM Tris-HCl pH 7.5, 5 mM MgCl2, 1 mM DTT, 2 μM biotin-SAMS, 2 μM ATP, 0.2 μCi/well [γ-^33P]ATP, and various amount of activator. Reactions were initiated by the addition of 50 nM recombinant AMPK proteins to the reaction solutions and incubated at 30° C. for 2 hr. After that, reactions were terminated by the addition of 401 stop solution containing 80 μg streptavidin-coated SPA beads per well, 50 mM EDTA, 0.1% Triton X-100 in PBS, pH 7.5 and incubated for 1 hr. Finally, a 160 ul suspension solution containing 2.4 M CsCl, 50 mM EDTA, and 0.1% Triton X-100 in PBS (pH 7.5) was added to the reaction solution to suspend SPA beads completely. SPA signals were determined with a Wallac MicroBeta plate counter (PerkinElmer) 30 min later for calculation of the amount of product formed. The amount of products formed in 2 hr was plotted against activator concentrations to determine the effective concentration of the activator (EC50) required for 50% of maximal enzyme activity.
Compounds as described above have EC50 values between 0.5 uM and 50 uM, preferred compounds have EC50 values between 0.5 uM and 10 uM, particularly preferred compounds have EC50 values between 0.5 uM and 1 uM.

Compound	pEC50
O=C(O)c1cccc(CN2C(=O)/C(=C(\c3ccccc3)c3ccc(Cl)cc3)c3cccc(F)c32)c1 [Example 73, 3-{3-[1-(4-Chloro-phenyl)-1-phenyl-meth-(E)-ylidene]-7-fluoro-2-oxo-2,3-dihydro-indol-1-ylmethyl}-benzoic acid]	5.29
COC(=O)c1cccc(CN2C(=O)/C(=C(/c3ccc(C(C)=O)cc3)C(C)C)c3ccccc32)c1 [Example 86, 3-{3-[1-(4-Acetyl-phenyl)-2-methyl-prop-(E)-ylidene]-2-oxo-2,3-dihydro-indol-1-ylmethyl}-benzoic acid methyl ester]	5.10
COC(=O)c1cccc(CN2C(=O)/C(=C(\CC(C)(C)C)c3ccccc3)c3ccccc32)c1 [Example 80, 3-{3-[3,3-Dimethyl-1-phenyl-but-(E)-ylidene]-2-oxo-2,3-dihydro-indol-1-ylmethyl}-benzoic acid methyl ester]	5.24
COC(=O)c1cccc(CN2C(=O)/C(=C(\c3ccccc3)c3cc(C(F)(F)F)ccc3Cl)c3ccccc32)c1 [Example 24, 3-{3-[1-(2-Chloro-5-trifluoromethyl-phenyl)-1-phenyl-meth-(E)-ylidene]-2-oxo-2,3-dihydro-indol-1-ylmethyl}-benzoic acid methyl ester]	5.32
O=C(O)c1ccc(CN2C(=O)/C(=C(\c3ccccc3)c3ccc(Cl)cc3)c3ccccc32)nc1 [Example 59, 6-{3-[1-(4-Chloro-phenyl)-1-phenyl-meth-(E)-ylidene]-2-oxo-2,3-dihydro-indol-1-ylmethyl}-nicotinic acid]	5.28
COC(=O)c1cccc(CN2C(=O)/C(=C(\c3ccccc3)c3ccccc3Br)c3ccccc32)c1 [Example 23, 3-{3-[1-(2-Bromo-phenyl)-1-phenyl-meth-(E)-ylidene]-2-oxo-2,3-dihydro-indol-1-ylmethyl}-benzoic acid methyl ester]	5.16
O=C(O)c1csc(CN2C(=O)/C(=C(\c3ccccc3)c3ccc(Cl)cc3)c3ccccc32)n1 [Example 76, 2-{3-[1-(4-Chloro-phenyl)-1-phenyl-meth-(E)-ylidene]-2-oxo-2,3-dihydro-indol-1-ylmethyl}-thiazole-4-carboxylic acid]	5.29
O=C(O)c1cccc(CN2C(=O)/C(=C(/c3ccc(Cl)cc3)C3CCCCC3)c3ccccc32)c1 [Example 104, 3-{3-[1-(4-Chloro-phenyl)-1-cyclohexyl-meth-(E)-ylidene]-2-oxo-2,3-dihydro-indol-1-ylmethyl}-benzoic acid]	5.33
COC(=O)c1cccc(CN2C(=O)/C(=C(\c3ccccc3)c3ccc(Cl)cc3)c3cc(F)ccc32)c1 [Example 18, 3-{3-[1-(4-Chloro-phenyl)-1-phenyl-meth-(E)-ylidene]-5-fluoro-2-oxo-2,3-dihydro-indol-1-ylmethyl}-benzoic acid methyl ester]	5.25
O=C1/C(=C(\c2ccccc2)c2ccc(Cl)cc2)c2ccccc2N1Cc1cc(O)c(O)c(O)c1 [Example 41, 3-[1-(4-Chloro-phenyl)-1-phenyl-meth-(E)-ylidene]-1-(3,4,5-trihydroxy-benzyl)-1,3-dihydro-indol-2-one]	5.35
COC(=O)c1cccc(CN2C(=O)/C(=C(\c3ccccc3)c3ccc(C(F)(F)F)cc3)c3ccccc32)c1 [Example 12, 3-{2-Oxo-3-[1-phenyl-1-(4-trifluoromethyl-phenyl)-meth-(E)-ylidene]-2,3-dihydro-indol-1-ylmethyl}-benzoic acid methyl ester]	5.27

These reach a higher pEC50. Values come first.

pEC50	Compound
6.18	CC(C)/C(=C1\C(=O)N(Cc2cccc(C(=O)O)c2)c2ccc(Cl)cc21)c1ccc(C(F)(F)F)cc1 [Example 107, 3-{5-Chloro-3-[2-methyl-1-(4-trifluoromethyl-phenyl)-prop-(E)-ylidene]-2-oxo-2,3-dihydro-indol-1-ylmethyl}-benzoic acid]
5.59	COC(=O)c1cccc(CN2C(=O)/C(=C(/c3ccc(C(F)(F)F)cc3)C(C)C)c3ccccc32)c1 [Example 88, 3-{3-[2-Methyl-1-(4-trifluoromethyl-phenyl)-prop-(E)-ylidene]-2-oxo-2,3-dihydro-indol-1-ylmethyl}-benzoic acid methyl ester]
5.82	COC(=O)c1cccc(CN2C(=O)/C(=C(\c3ccccc3)c3ccc(Cl)cc3)c3cccc(F)c32)c1 [Example 6, 3-{3-[1-(4-Chloro-phenyl)-1-phenyl-meth-(E)-ylidene]-7-fluoro-2-oxo-2,3-dihydro-indol-1-ylmethyl}-benzoic acid methyl ester]
5.80	COC(=O)c1cccc(CN2C(=O)/C(=C(/CC(C)(C)C)c3ccccc3)c3ccccc32)c1 [Example 78, 3-{3-[3,3-Dimethyl-1-phenyl-but-(Z)-ylidene]-2-oxo-2,3-dihydro-indol-1-ylmethyl}-benzoic acid methyl ester]
6.10	COC(=O)c1cccc(CN2C(=O)/C(=C(\c3ccccc3)c3ccccc3SC)c3ccccc32)c1 [Example 28, 3-{3-[1-(2-Methylsulfanyl-phenyl)-1-phenyl-meth-(E)-ylidene]-2-oxo-2,3-dihydro-indol-1-ylmethyl}-benzoic acid methyl ester]
5.40	COc1ccc(/C(=C2/C(=O)N(Cc3cccc(C(=O)O)c3)c3ccccc32)c2ccccc2)cc1 [Example 46, 3-{3-[1-(4-Methoxy-phenyl)-1-phenyl-meth-(E)-ylidene]-2-oxo-2,3-dihydro-indol-1-ylmethyl}-benzoic acid]
5.66	CCOC(=O)c1cccc(N2C(=O)/C(=C(\C)c3ccccc3)c3ccccc32)c1 [Example 1, 3-[2-Oxo-3-(1-phenyl-ethylidene)-2,3-dihydro-indol-1-yl]-benzoic acid ethyl ester]
5.83	COC(=O)Cc1cccc(N2C(=O)/C(=C(\C)c3ccccc3)c3ccccc32)c1 [Example 2, (3-{2-Oxo-3-[1-phenyl-eth-(E)-ylidene]-2,3-dihydro-indol-1-yl}-phenyl)-acetic acid methyl ester]
5.53	COC(=O)c1cccc(CN2C(=O)/C(=C(\c3ccc(Cl)cc3)c3ccc(C(F)(F)F)cc3)c3ccccc32)c1 [Example 35, 3-{3-[1-(4-Chloro-phenyl)-1-(4-trifluoromethyl-phenyl)-meth-(Z)-ylidene]-2-oxo-2,3-dihydro-indol-1-ylmethyl}-benzoic acid methyl ester]
5.50	O=C(O)c1cccc(CN2C(=O)/C(=C(\c3ccccc3)c3ccc(Cl)cc3)c3cc(Cl)ccc32)c1 [Example 74, 3-{5-Chloro-3-[1-(4-chloro-phenyl)-1-phenyl-meth-(E)-ylidene]-2-oxo-2,3-dihydro-indol-1-ylmethyl}-benzoic acid]
6.11	COC(=O)c1cccc(CN2C(=O)/C(=C(\c3ccccc3)c3ccc(S(N)(=O)=O)cc3)c3ccccc32)c1 [Example 31, 3-{2-Oxo-3-[1-phenyl-1-(4-sulfamoyl-phenyl)-meth-(E)-ylidene]-2,3-dihydro-indol-1-ylmethyl}-benzoic acid methyl ester]
5.50	O=C(O)c1cccc(CN2C(=O)/C(=C(\c3ccccc3)c3ccc(C(F)(F)F)cc3)c3ccccc32)c1 [Example 48, 3-{2-Oxo-3-[1-phenyl-1-(4-trifluoromethyl-phenyl)-meth-(E)-ylidene]-2,3-dihydro-indol-1-ylmethyl}-benzoic acid]
5.61	O=C(O)c1cccc(CN2C(=O)/C(=C(\c3ccccc3)c3cccc(C(F)(F)F)c3)c3ccccc32)c1 [Example 66, 3-{2-Oxo-3-[1-phenyl-1-(3-trifluoromethyl-phenyl)-meth-(E)-ylidene]-2,3-dihydro-indol-1-ylmethyl}-benzoic acid]
5.56	COC(=O)c1cccc(CN2C(=O)/C(=C(\c3ccccc3)c3ccc(Cl)cc3)c3c(F)cccc32)c1 [Example 25, 3-{3-[1-(4-Chloro-phenyl)-1-phenyl-meth-(E)-ylidene]-4-fluoro-2-oxo-2,3-dihydro-indol-1-ylmethyl}-benzoic acid methyl ester]
5.59	COC(=O)c1cccc(CN2C(=O)/C(=C(/CCC(C)C)c3ccccc3)c3ccccc32)c1 [Example 77, 3-[3-(4-Methyl-1-phenyl-pent-(Z)-ylidene)-2-oxo-2,3-dihydro-indol-1-ylmethyl]-benzoic acid methyl ester]
5.63	COC(=O)c1cccc(CN2C(=O)/C(=C(\c3ccccc3)c3ccccc3Cl)c3ccccc32)c1 [Example 17, 3-{3-[1-(2-Chloro-phenyl)-1-phenyl-meth-(E)-ylidene]-2-oxo-2,3-dihydro-indol-1-ylmethyl}-benzoic acid methyl ester]
